# Literature values, collected in patent US20090053769A1, “HETEROLOGOUS PRODUCTION OF NATURAL PRODUCTS IN BACTERIA” (University of Southern California, priority 2007, published 2009).
# Positions of bridges follow the written chain, without caps; N, C: chain ends. Non-standard residues stand in square brackets, D forms with d. Residues, ends and D or L forms follow the SMILES beside them. Chains are numbered I, II in the order given. *: point of attachment. Quinoxaline2carbonyl = O=C(c1cnc2ccccc2n1)*; NMeV = CN[CH](C(=O)O)C(C)C; NMeC = CN[CH](CS)C(=O)O
# Conditions: general statement on antibacterial, anticancer and antiviral activities, reference 24
row,SMILES,potency
1,"CS[C@H]1SC[C@H]2C(=O)N(C)[C@@H](C(C)C)C(=O)OC[C@@H](NC(=O)c3cnc4ccccc4n3)C(=O)N[C@@H](C)C(=O)N(C)[C@@H]1C(=O)N(C)[C@@H](C(C)C)C(=O)OC[C@@H](NC(=O)c1cnc3ccccc3n1)C(=O)N[C@@H](C)C(=O)N2C [compound 1, echinomycin]",nanomolar potency
2,"CC1NC(=O)C(NC(=O)c2cnc3ccccc3n2)COC(=O)C(C(C)C)N(C)C(=O)C2CSSCC(C(=O)N(C)C(C(C)C)C(=O)OCC(NC(=O)c3cnc4ccccc4n3)C(=O)NC(C)C(=O)N2C)N(C)C1=O (centres unmarked) [compound 2, triostin A] (I: Quinoxaline2carbonyl-SA[NMeC][NMeV] / II: Quinoxaline2carbonyl-SA[NMeC][NMeV]; ester I:1-II:C, I:C-II:1; disulfide I:3-II:3; configuration not given here)",nanomolar potency
